Patent US20190389843A1, “PYRROLE mTORC INHIBITORS AND USES THEREOF” (Navitor Pharmaceuticals, Inc., priority 2016, published 2019)
Where a name gives a salt, the structure may show the parent alone.

Assays:
[1] = tested on: pS6K1 in MCF7 (measure of mTORC1 activity); assay: AlphaLISA Ultra pS6K1 assay; type: cell-based; conditions: Homo sapiens, MCF7, 2 h, MCF-7 cells, 2 hours compound incubation
Description: (§1) Assay Protocol: • 1. […] 12,000˜16,000 cells will be seeded in 36 μL medium per well. • 2. Change the culture medium with fresh medium and incubate for another 2 hours. • 3. Add 12 μL (4λ) compounds into the cell plate by HAMILTON. Final DMSO concentration is 0.5%. Incubate for 2 hours. • 4. Aspirate 38 μL by HAMILTON, 10 μL rest per well. • 5. Add 10 μL 2× lysis buffer using HAMILTON; total volume in wells is 20 μL. Allow cells to shake for 30 min. Cover plate by plastic foil and store plate at −80° C. up to analysis. • 6. […] Add 5 ul acceptor beads into assay plate and incubation for 2 hours • 8. Add 5 ul donor beads and incubation for 2 hours • 9. Count the plate by EnSpire Multimode Plate Reader

[2] = tested on: pAKT in MCF7 (measure of mTORC2 activity); assay: AlphaLISA Ultra pAKT assay; type: cell-based; conditions: Homo sapiens, MCF7, 2 h, MCF-7 cells, 2 hours compound incubation
Description: as §1, with “16,000˜20,000” for “12,000˜16,000”, “(4×)” for “(4λ)”

IC50 [1] | IC50 [2] | Compound
10 to 1000 nM | > 3000 nM | Cc1c(CN2CCN(c3ccccc3Cl)CC2)cc(C(=O)N2CCN(c3ccc(F)c(C#N)c3)CC2)n1C [Example I-105, 5-(4-(4-((4-(2-Chlorophenyl)piperazin-1-yl)methyl)-1,5-dimethyl-1H-pyrrole-2-carbonyl)piperazin-1-yl)-2-fluorobenzonitrile]
10 to 1000 nM | > 5000 nM | Cc1c(CN2CCN(c3ccccc3Cl)CC2)cc(C(=O)N2CCN(c3cc(F)cc(F)c3)C[C@@H]2C)n1C [Example I-93, (S)-(4-((4-(2-chlorophenyl)piperazin-1-yl)methyl)-1,5-dimethyl-1H-pyrrol-2-yl)(4-(3,5-difluorophenyl)-2-methylpiperazin-1-yl)methanone]
10 to 1000 nM | > 10000 nM | Cc1c(CN2CCN(c3ccccc3C#N)CC2)cc(C(=O)N2CCN(c3ccccc3C#N)CC2)n1C [Example I-23]
1000 to 3000 nM | > 10000 nM | Cc1c(CN2CCN(c3ccccc3Cl)CC2)cc(C(=O)N2CCN(c3ncccn3)C[C@@H]2C)n1C [Example I-74, (S)-(4-((4-(2-chlorophenyl)piperazin-1-yl)methyl)-1,5-dimethyl-1H-pyrrol-2-yl)(2-methyl-4-(pyrimidin-2-yl)piperazin-1-yl)methanone]
3000 to 10000 nM | > 10000 nM | Cc1c(CN2CCN(c3ccccc3Cl)CC2)cc(C(=O)N2CCN(c3cccc(CCCN)c3)C[C@@H]2C)n1C [Example I-30, (S)-(4-(3-(3-aminopropyl)phenyl)-2-methylpiperazin-1-yl)(4-((4-(2-chlorophenyl)piperazin-1-yl)methyl)-1,5-dimethyl-1H-pyrrol-2-yl)methanone trifluoroacetate salt]
3000 to 10000 nM | > 10000 nM | Cc1c(CN2CCN(c3ccccc3Cl)CC2)cc(C(=O)N2CCCN(c3cccc(C#N)c3)CC2)n1C [Example I-40, 3-(4-(4-((4-(2-chlorophenyl)piperazin-1-yl)methyl)-1,5-dimethyl-1H-pyrrole-2-carbonyl)-1,4-diazepan-1-yl)benzonitrile]
3000 to 10000 nM | > 10000 nM | Cc1c(CN2CCN(c3ccccc3CCCN)CC2)cc(C(=O)N2CCN(c3ccccc3)C[C@@H]2C)n1C [Example I-24, (S)-(4-((4-(2-(3-aminopropyl)phenyl)piperazin-1-yl)methyl)-1,5-dimethyl-1H-pyrrol-2-yl)(2-methyl-4-phenylpiperazin-1-yl)methanone ditrifluoroacetate salt]
10 to 1000 nM | > 3000 nM | Cc1c(CN2CCN(c3ccccc3C#N)CC2)cc(C(=O)N2CCN(c3cccc(C#N)c3)C[C@@H]2C)n1C [Example I-66]
10 to 1000 nM | > 3000 nM | Cc1cccc(N2CCN(C(=O)c3cc(CN4CCN(c5ccccc5C#N)CC4)c(C)n3C)CC2)n1 [Example I-64]
1000 to 3000 nM | > 10000 nM | Cc1c(CN2CCN(c3ccccc3N=[N+]=[N-])CC2)cc(C(=O)N2CCN(c3ccccc3)C[C@@H]2C)n1C [Example I-83, (S)-(4-((4-(2-azidophenyl)piperazin-1-yl)methyl)-1,5-dimethyl-1H-pyrrol-2-yl)(2-methyl-4-phenylpiperazin-1-yl)methanone]
10 to 1000 nM | > 3000 nM | Cc1c(CN2CCN(c3ncccc3Cl)CC2)cc(C(=O)N2CCN(c3ccc(F)c(F)c3)CC2)n1C [Example I-84, (4-((4-(3-chloropyridin-2-yl)piperazin-1-yl)methyl)-1,5-dimethyl-1H-pyrrol-2-yl)(4-(3,4-difluorophenyl)piperazin-1-yl)methanone]

Compound | IC50 [1] | IC50 [2]
Cc1c(CN2C3CCC2CN(c2ccccc2C#N)C3)cc(C(=O)N2CCN(c3ccccn3)CC2)n1C [Example I-52, 2-(8-((1,2-dimethyl-5-(4-(pyridin-2-yl)piperazine-1-carbonyl)-1H-pyrrol-3-yl)methyl)-3,8-diazabicyclo[3.2.1]octan-3-yl)benzonitrile] | 10 to 1000 nM | > 10000 nM
